Patent publication US20240101566A1, “TRICYCLIC UBIQUITIN SPECIFIC PROTEASE 1 INHIBITOR AND USE THEREOF” (SHANDONG XUANZHU PHARMA CO., LTD., priority 2021, published 2024)

Tests used:
MDA-MB-436 cells [1] = assay: First in-vitro cytological inhibitory activity experiment (CelltiterGlo assay); type: cell-based, human; settings: Homo sapiens, MDA-MB-436, 168 h, Experimental Example 2, 4,000 cells/well, 7 days, read-out: In-vitro cytological activities, IC50, MDA-MB-436
Method: Experimental Example 2 First Experiment of in-vitro Cytological Inhibitory Activities of Compounds of the Present Disclosure
A cell line used in the following experiment was as follows: MDA-MB-436: human breast cancer cells.
Experimental method (CelltiterGlo assay)
All cells were adherent cells, the medium was DMEM+10% FBS+1% ITS-G+16 μg/ml glutathione, and the cells were tested in a logarithmic growth phase.
(§1) Cells in the logarithmic growth phase were collected and counted by a […]. The cell viability was detected by a trypan blue exclusion method, and the cell viability was kept over 90%. The cell concentration was adjusted to be in a proper range, and 90 μL of cell suspension was added into a 96-well plate respectively.
(§2) 2.1 DMSO stock solutions of the test compounds were prepared, and concentrations of the stock solutions of the test compounds were 10 mM respectively.
(§3) The stock solutions of the test compounds were serially diluted from 10 mM with DMSO in a 3-fold gradient for a total of 8 concentrations. Then, 2 µL of DMSO-gradient diluted compounds were respectively added into 198 µL of culture solutions to give the working stock solutions of the test compounds (a compound concentration was 10-fold higher than the final concentration, and a maximum concentration was 10 μM).
(§4) 10 μL of compound working stock solution was added into each well in the 96-well plate inoculated with cells (10-fold dilution, a final DMSO concentration was 0.1%).
Solvent control: 0.1% DMSO. […]
(§5) A CTG reagent was thawed and the 96-well plate was equilibrated to room temperature for 30 minutes, 60 μL of reagent (Celititer Glo assay kit) was added into each well, shaking was carried out for 2 minutes with a shaker (in the absence of light), and the plate was incubated at room temperature for 20 minutes (in the absence of light). Light signal values were read on a multi-functional microplate reader.
1) inhibition (%)=(DMSO solvent control well reading−test compound well reading)/(DMSO solvent control well reading−blank control well reading)×100%; […]

[2] = target: T1, Recombinant Human His6-USP1/His6-UAF1 Complex Protein (Homo sapiens (Human), UniProt O94782); assay: In-vitro enzymatic activity on USP1, first experimental method (Ub-Rho substrate, 15 min incubation); type: biochemical; settings: incubation at room temperature 15 minutes, read-out: Inhibitory activities on USP-1, IC50
T1 sequence (O94782 whole entry): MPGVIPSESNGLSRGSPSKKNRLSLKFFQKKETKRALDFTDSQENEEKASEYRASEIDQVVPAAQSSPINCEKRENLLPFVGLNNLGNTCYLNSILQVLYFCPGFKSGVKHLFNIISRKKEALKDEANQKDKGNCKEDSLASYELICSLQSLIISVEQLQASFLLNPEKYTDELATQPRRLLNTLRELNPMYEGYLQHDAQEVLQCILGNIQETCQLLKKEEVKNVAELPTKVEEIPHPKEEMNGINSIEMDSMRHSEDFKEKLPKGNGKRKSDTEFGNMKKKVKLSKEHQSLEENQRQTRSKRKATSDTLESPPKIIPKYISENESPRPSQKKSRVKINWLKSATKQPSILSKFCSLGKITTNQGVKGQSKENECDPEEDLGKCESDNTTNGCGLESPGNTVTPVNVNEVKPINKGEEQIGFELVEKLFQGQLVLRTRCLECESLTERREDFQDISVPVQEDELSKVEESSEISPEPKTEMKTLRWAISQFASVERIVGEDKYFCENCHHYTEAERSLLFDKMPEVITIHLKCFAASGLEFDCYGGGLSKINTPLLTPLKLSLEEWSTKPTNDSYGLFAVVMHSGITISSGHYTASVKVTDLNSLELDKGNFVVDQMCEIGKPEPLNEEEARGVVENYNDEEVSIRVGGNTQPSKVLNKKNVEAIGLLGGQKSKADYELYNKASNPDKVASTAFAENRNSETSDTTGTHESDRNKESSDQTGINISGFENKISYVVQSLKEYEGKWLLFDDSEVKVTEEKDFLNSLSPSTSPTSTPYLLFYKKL
T1 sequence (Q8TAF3 whole entry partner): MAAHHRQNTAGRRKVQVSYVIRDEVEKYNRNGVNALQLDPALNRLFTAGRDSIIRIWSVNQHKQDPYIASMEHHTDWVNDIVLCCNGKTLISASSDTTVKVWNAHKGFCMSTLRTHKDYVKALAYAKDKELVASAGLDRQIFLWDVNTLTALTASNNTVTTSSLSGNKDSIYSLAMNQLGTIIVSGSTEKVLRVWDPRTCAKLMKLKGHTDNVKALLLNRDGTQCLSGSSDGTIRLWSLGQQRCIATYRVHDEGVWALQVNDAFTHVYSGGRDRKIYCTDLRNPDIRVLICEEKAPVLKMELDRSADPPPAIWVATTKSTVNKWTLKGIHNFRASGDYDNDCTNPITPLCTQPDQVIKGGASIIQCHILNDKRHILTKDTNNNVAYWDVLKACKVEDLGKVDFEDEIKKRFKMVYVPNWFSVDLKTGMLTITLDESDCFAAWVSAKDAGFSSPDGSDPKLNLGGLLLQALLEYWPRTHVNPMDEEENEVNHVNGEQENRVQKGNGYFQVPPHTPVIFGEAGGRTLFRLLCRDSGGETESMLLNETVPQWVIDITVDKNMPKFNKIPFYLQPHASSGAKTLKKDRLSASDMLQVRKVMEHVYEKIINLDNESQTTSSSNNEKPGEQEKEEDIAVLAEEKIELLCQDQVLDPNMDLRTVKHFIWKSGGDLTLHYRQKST
Method: Experimental Example 1 In-vitro Enzymatic Activities of Compounds of the Present Disclosure
First Experimental Method:
1) The compounds of the present disclosure were prepared to 10 mM with DMSO, and used as test stock solutions.
2) The stock solutions of the compounds of the present disclosure were diluted in a 4-fold gradient for 10 concentrations, with a maximum concentration of 10 mM.
3) The diluted compounds of the present disclosure were respectively transferred to 384-well plates (diluted by 1,000 folds) by Echo550, 2 multiple wells were set for each concentration, and a final concentration of DMSO was […].
(§6) 1) An enzyme solution was prepared in 1×test buffer.
(§7) 2) Ubiquitin Rhodamine 110 protein, CF (UB-Rho), was added into 1×determination buffer to prepare a substrate solution.
(§8) 3) 10 μL of enzyme solution and 1×reaction buffer were transferred to a 384-well plate, and
(§9) 4) incubated at room temperature for 15 minutes.
(§10) 5) 10 μL of substrate solution was added into each well to start the reaction, centrifuged for 30 seconds, and shaken for 30 seconds.
(§11) 1) Plate reading was carried out on SpectraMax Paradigm for 30 minutes, with an excitation wavelength of 480 nm and an emission wavelength of 540 nm.
2) Data on SpectraMax Paradigm were collected.
An inhibition (% inh) was calculated by the following formula:
(§12) [formula] • wherein, Max represented: a luminous signal intensity of a positive control well without adding the compound; • Min represented: a luminous signal intensity of a negative control well without adding the enzyme; and • Signal represented: a luminous signal intensity of the compound of the test sample.
IC50 was Calculated by the Following Formula:
(§13) [formula] • wherein, Y represented: % inhibition; and • X represented: the concentration of the compound.

Caov-3 cells [3] = assay: Second in-vitro cytological inhibitory activity experiment, first method (CelltiterGlo assay), Caov-3; type: cell-based; settings: Homo sapiens, Caov-3, 168 h, Experimental Example 3 first method, 2,000 cells/well, 7 days
Method: (§14) Experimental Example 3 Second Experiment of in-vitro Cytological Inhibitory Activities of Compounds of the Present Disclosure
(§15) Cell lines used in the following experiment were as follows: MDA-MB-436: human breast cancer cells; and Caov-3: Human ovarian cancer cells
(§16) First Experimental Method (CelltiterGlo Assay)
(§17) All cells were adherent cells, the MDA-MB-436 cell medium was DMEM+10% FBS+1% ITS-G+16 μg/ml glutathione, the Caov-3 cell medium was DMEM+10% FBS, and cells were tested in a logarithmic growth phase.
as §1, §2
as §3, with “concentration was 100 μM).” for “concentration was 10 μM).”
as §4
(§18) Solvent control: 0.1% DMSO.
(§19) Blank control: 0 hour after dosing, the 96-well plate was detected and read.
(§20) 2.5 The 96-well plate was placed in a 5% CO2 cell incubator at 37° C. to culture for 7 days.
as §5
(§21) 1) inhibition (%)=(DMSO solvent control well reading−test compound well reading)/(DMSO solvent control well reading−blank control well reading)×100%;
(§22) 2) GraphPad Prism was input for drawing to obtain a curve and IC50.

[4] = target: T1, Recombinant Human His6-USP1/His6-UAF1 Complex Protein; assay: In-vitro enzymatic activity on USP1, second experimental method (60 min incubation); type: biochemical; settings: incubation at room temperature 60 minutes, read-out: Inhibitory activities on USP-1, IC50
Method: as §6, §7, §8, §9, §10, §11, §12, §13
(§23) Second Experimental Method:
In the enzyme reaction experiment, the incubation time at room temperature in the step 4) was changed to 60 minutes, other conditions were the same as those in the first experimental method, and the following test results were obtained: […]

MDA-MB-436 cells [5] = assay: Second in-vitro cytological inhibitory activity experiment, first method (CelltiterGlo assay), MDA-MB-436; type: cell-based; settings: Homo sapiens, MDA-MB-436, 168 h, Experimental Example 3 first method, 3,000 cells/well, 7 days, read-out: In-vitro cytological activities, IC50, MDA-MB-436
Method: as §14, §15, §16, §17, §1, §2
as §3, with “concentration was 100 μM).” for “concentration was 10 μM).”
as §4, §18, §19, §20, §5, §21, §22

MDA-MB-436 cells [6] = assay: Second in-vitro cytological inhibitory activity experiment, second method, MDA-MB-436; type: cell-based; settings: Homo sapiens, Experimental Example 3 second method, 5 mM stock, 9 concentrations
Method: as §23
(§24) The concentrations of the compound stock solutions prepared were 5 mM.
(§25) The stock solutions of the test compounds were serially diluted from 5 mM with DMSO in a 3-fold gradient for a total of 9 concentrations.

Caov-3 cells [7] = assay: Second in-vitro cytological inhibitory activity experiment, second method, Caov-3; type: cell-based; settings: Homo sapiens, Experimental Example 3 second method, 5 mM stock, 9 concentrations
Method: as §23, §24, §25

SMILES	IC50 (MDA-MB-436 cells [1]) [nM]	IC50 [2] [nM]	IC50 (Caov-3 cells [3]) [nM]	IC50 [4] [nM]	IC50 (MDA-MB-436 cells [5]) [nM]	IC50 (MDA-MB-436 cells [6]) [nM]	IC50 (Caov-3 cells [7]) [nM]
COc1ncnc(C2CC2)c1-c1nc2c3c(nn(Cc4ccc(-c5nc(C(F)(F)F)cn5C)cc4)c3n1)CCC2 [Compound 1, 4-(4-cyclopropyl-6-methoxypyrimidine-5-yl)-2-(4-(1-methyl-4-(trifluoromethyl)-1H-imidazol-2-yl)benzyl)-2,6,7,8-tetrahydropyrazolo[3,4,5-de]quinazoline]	68	28					
[2H]C([2H])([2H])Oc1ncnc(C2CC2)c1-c1nc2c3c(nn(Cc4ccc(-c5nc(C(F)(F)F)cn5C)cc4)c3n1)CCC2 [Compound 1-1, 4-(4-cyclopropyl-6-(methoxy-d3)pyrimidin-5-yl)-2-(4-(1-methyl-4-(trifluoromethyl)-1H-imidazol-2-yl)benzyl)-2,6,7,8-tetrahydropyrazolo[3,4,5-de]quinazoline]			1 to 600	12.9	42.4		
CC(C)c1c(F)cccc1-c1nc2c3c(nn(Cc4ccc(-c5nc(C(F)(F)F)cn5C)cc4)c3n1)CCC2 [Compound 2, 4-(3-fluoro-2-isopropylphenyl)-2-(4-(1-methyl-4-(trifluoromethyl)-1H-imidazol-2-yl)benzyl)-2,6,7,8-tetrahydropyrazolo[3,4,5-de]quinazoline]	88.1	5					
Cc1cc(C(F)(F)F)nn1-c1ccc(Cn2nc3c4c(nc(-c5cccc(F)c5C(C)C)nc42)CCC3)cc1 [Compound 3, 4-(3-fluoro-2-isopropylphenyl)-2-(4-(5-methyl-3-(trifluoromethyl)-1H-pyrazol-1-yl)benzyl)-2,6,7,8-tetrahydropyrazolo[3,4,5-de]quinazoline]		18					
[2H]C([2H])([2H])Oc1ncnc(C2CC2)c1-c1nc2c3c(nn(Cc4ccc(-c5nc(C(F)(F)F)cn5C)cc4)c3n1)CCCC2 [Compound 11-1, 4-(4-cyclopropyl-6-(methoxy-d3)pyrimidin-5-yl)-2-(4-(1-methyl-4-(trifluoromethyl)-1H-imidazol-2-yl)benzyl)-6,7,8,9-tetrahydro-2H-1,2,3,5-tetraazabenzo[cd]azulene]			1 to 600	15	122		
COc1ncnc(C2CC2)c1-c1nc2c3c(nn(Cc4ccc(-c5nc(C(F)(F)F)cn5C(C)C)cc4)c3n1)CCC2 [Compound 16, 4-(4-cyclopropyl-6-methoxypyrimidine-5-yl)-2-(4-(1-isopropyl-4-(trifluoromethyl)-1H-imidazol-2-yl)benzyl)-2,6,7,8-tetrahydropyrazolo[3,4,5-de]quinazoline]			1 to 600	8	42.3		
[2H]C([2H])([2H])Oc1ncnc(C2CC2)c1-c1nc2c3c(nn(Cc4ccc(-c5nc(C(F)(F)F)cn5C(C)C)cc4)c3n1)CCC2 [Compound 16-1, 4-(4-cyclopropyl-6-(methoxy-d3)pyrimidin-5-yl)-2-(4-(1-isopropyl-4-(trifluoromethyl)-1H-imidazol-2-yl)benzyl)-2,6,7,8-tetrahydropyrazolo[3,4,5-de]quinazoline]			1 to 600	6.67	55.3		
[2H]C([2H])([2H])Oc1ncnc(C2CC2)c1-c1nc2c3c(nn(Cc4ccc(-c5nc(C(F)(F)F)cn5C(C)C)cc4)c3n1)CCCC2 [Compound 17-1, 4-(4-cyclopropyl-6-(methoxy-d3)pyrimidin-5-yl)-2-(4-(1-isopropyl-4-(trifluoromethyl)-1H-imidazol-2-yl)benzyl)-6,7,8,9-tetrahydro-2H-1,2,3,5-tetraazabenzo[cd]azulene]			1 to 600	6.66	110		
Cc1cnn(C(C)C)c1-c1nc2c3c(nn(Cc4ccc(-c5nc(C(F)(F)F)cn5C)cc4)c3n1)CCC2 [Compound 18, 4-(1-isopropyl-4-methyl-1H-pyrazol-5-yl)-2-(4-(1-methyl-4-(trifluoromethyl)-1H-imidazol-2-yl)benzyl)-2,6,7,8-tetrahydropyrazolo[3,4,5-de]quinazoline]			1 to 600	3.98	29.7		
Cc1cnn(C(C)C)c1-c1nc2c3c(nn(Cc4ccc(-c5nc(C(F)(F)F)cn5C(C)C)cc4)c3n1)CCC2 [Compound 19, 2-(4-(1-isopropyl-4-(trifluoromethyl)-1H-imidazol-2-yl)benzyl)-4-(1-isopropyl-4-methyl-1H-pyrazol-5-yl)-2,6,7,8-tetrahydropyrazolo[3,4,5-de]quinazoline]			1 to 600	4.36	49.8		
Cn1cc(C(F)(F)F)nc1-c1ccc(Cn2nc3c4c(nc(-c5c(OC(F)F)ncnc5C5CC5)nc42)CCC3)cc1 [Compound 20, 4-(4-cyclopropyl-6-(difluoromethoxy)pyrimidin-5-yl)-2-(4-(1-methyl-4-(trifluoromethyl)-1H-imidazol-2-yl)benzyl)-2,6,7,8-tetrahydropyrazolo[3,4,5-de]quinazoline]						55.7	1 to 100
